Measurements as given in patent US9555038B2, “Heterocycle-substituted tetracyclic compounds and methods of use thereof for the treatment of viral diseases” (Merck Sharp & Dohme Corp., priority 2013, dated 2017).
Like-named read-outs stand apart in the source and are kept apart here.

Key:
HCV replicon 1A = assay: Cell-based HCV Replicon Assay A, replicon 1A
Method: (§1) To measure cell-based anti-HCV activity of compounds of the present invention, two complimentary assays were employed using various replicons. In the first assay (“Replicon Assay A”), replicon cells were seeded at 2000 cells/well in 384-well 384-well flat bottom tissue culture treated clear bottom plate (Corning 3707) in the presence of the test compound. Various concentrations of test compound, typically in 10 serial dilutions, were added to the assay mixture, with the starting concentration ranging from 333.3 nM to […]. The final concentration of DMSO was 0.5%. Fetal bovine serum was 5%, in the assay media. Cells were harvested on day 3 by removing media and washing the cells with a suitable wash buffer. The cells are lysed with the addition of 1× Qiagen lysis buffer (Cat #1062731). The replicon RNA level was measured using real time PCR (TaqMan® EZ RT-PCR, Applied Biosystems 403028) with the following primers and probes: […]
(§2) Cyclophilin RNA was used as endogenous control and was amplified in the same reaction as NS5B (multiplex PCR). The real-time RT-PCR reactions were run on ABI PRISM 7900HT Sequence Detection System using the following program: 50° C. for 2 minutes, 60° C. for 30 minutes, 95° C. for 5 minutes, 40 cycles of 94° C. for 20 sec, 55° C. for 1 minutes.
(§3) The amount of HCV replicon RNA per cell is quantified using a linear regression curve for a known nanogram (ng) amount of HCV replicon total RNA. This is established by plotting the Cycle Threshold values (Ct) from the Neo probe and primer set versus the log (ng) for each HCV replicon total RNA standard. The amount of HCV RNA for each replicon sample is calculated by taking the sample's Ct value, minus the line intercept, divided by the slope of the line. Similarly, the amount of Cyclophilin mRNA per cell is also quantified using a linear regression curve for a known nanogram (ng) amount of HCV replicon total RNA. Again, this is established by plotting the Cycle Threshold values (Ct) from the Cyclophilin probe and primer set versus the log (ng) for each HCV replicon total RNA standard.
(§4) Data was obtained for various compounds of the present invention using the methods described in the Example above, and is presented in the table immediately below. Data for replicons 1A, 1AY93H and 2B were obtained using Replicon Assay A and data for replicons 1AQ30D and 1B were obtained using Replicon Assay B.

HCV replicon 2B = assay: Cell-based HCV Replicon Assay A, replicon 2B
Method: as §1, §2, §3, §4

HCV replicon 1AY93H = assay: Cell-based HCV Replicon Assay A, replicon 1AY93H; settings: read-out: 1A Y93H IC50, replicon 1AY93H
Method: as §1, §2, §3, §4

[1] = Hepatitis C virus, read-out: 2B IC50 (nM), replicon 2B

| SMILES | IC50 (HCV replicon 2B; read-out: 2B IC50, replicon 2B) | IC50 (HCV replicon 1AY93H) | also measured |
| --- | --- | --- | --- |
| COC(=O)N[C@H](C(=O)N1CCC[C@H]1c1ncc(-c2cc(F)c3c(c2)OC(c2cnc(-c4ncccn4)s2)n2c-3cc3cc(-c4cnc([C@@H]5CCCN5C(=O)[C@@H](NC(=O)OC)C(C)C)[nH]4)ccc32)[nH]1)C(C)C (mixture of isomers) [Compound 411] | – | – | IC50 (HCV replicon 1A; Hepatitis C virus): 0.0512 nM |
| COC(=O)N[C@H](C(=O)N1CCC[C@H]1c1ncc(-c2cc(F)c3c(c2)OC(c2sc(C)nc2C(F)(F)F)n2c-3cc3cc(-c4cnc([C@@H]5CCCN5C(=O)[C@@H](NC(=O)OC)C(C)C)[nH]4)ccc32)[nH]1)C(C)C (mixture of isomers) [Compound 426] | – | – | IC50 (HCV replicon 1A; Hepatitis C virus): 0.0022 nM |
| COC(=O)N[C@H](C(=O)N1CCC[C@H]1c1ncc(-c2cc(F)c3c(c2)OC(c2cncs2)n2c-3cc3cc(-c4cnc([C@@H]5CCCN5C(=O)[C@@H](NC(=O)OC)C(C)C)[nH]4)ccc32)[nH]1)C(C)C (single isomer, unassigned) [Compound 1] | 0.88 nM | – | – |
| COC(=O)N[C@H](C(=O)N1CCC[C@H]1c1ncc(-c2cc(F)c3c(c2)OC(c2cnns2)n2c-3cc3cc(-c4cnc([C@@H]5CCCN5C(=O)[C@@H](NC(=O)OC)C(C)C)[nH]4)ccc32)[nH]1)C(C)C (single isomer, unassigned) [Compound 4] | 0.98 nM | 1.39 nM | – |
| COC(=O)N[C@H](C(=O)N1CCC[C@H]1c1ncc(-c2cc(F)c3c(c2)OC(c2nnc(C)s2)n2c-3cc3cc(-c4cnc([C@@H]5CCCN5C(=O)[C@@H](NC(=O)OC)C(C)C)[nH]4)ccc32)[nH]1)C(C)C (single isomer, unassigned) [Compound 5] | 3.06 nM | – | – |
| COC(=O)N[C@H](C(=O)N1CCC[C@H]1c1ncc(-c2cc(F)c3c(c2)OC(c2nnc(C)s2)n2c-3cc3cc(-c4cnc([C@@H]5CCCN5C(=O)[C@@H](NC(=O)OC)C(C)C)[nH]4)ccc32)[nH]1)C(C)C (single isomer, unassigned) [Compound 6] | – | – | IC50 (HCV replicon 2B; [1]): 1.75 nM |
| COC(=O)N[C@H](C(=O)N1CCC[C@H]1c1ncc(-c2cc(F)c3c(c2)OC(c2nc(C4CC4)cs2)n2c-3cc3cc(-c4cnc([C@@H]5CCCN5C(=O)[C@@H](NC(=O)OC)C(C)C)[nH]4)ccc32)[nH]1)C(C)C (single isomer, unassigned) [Compound 11] | 6.06 nM | 14.4 nM | – |
| COC(=O)N[C@H](C(=O)N1CCC[C@H]1c1ncc(-c2cc(F)c3c(c2)OC(c2nc(C4CC4)cs2)n2c-3cc3cc(-c4cnc([C@@H]5CCCN5C(=O)[C@@H](NC(=O)OC)C(C)C)[nH]4)ccc32)[nH]1)C(C)C (single isomer, unassigned) [Compound 12] | 2.21 nM | 0.18 nM | – |
| COC(=O)N[C@H](C(=O)N1CCC[C@H]1c1ncc(-c2cc(F)c3c(c2)OC(c2cnc(C(F)F)s2)n2c-3cc3cc(-c4cnc([C@@H]5CCCN5C(=O)[C@@H](NC(=O)OC)C(C)C)[nH]4)ccc32)[nH]1)C(C)C (single isomer, unassigned) [Compound 19] | 0.933 nM | 1.24 nM | – |
| COC(=O)N[C@H](C(=O)N1CCC[C@H]1c1ncc(-c2cc(F)c3c(c2)OC(c2cnc(C4CC4)s2)n2c-3c(F)c3cc(-c4cnc([C@@H]5CCCN5C(=O)[C@@H](NC(=O)OC)C(C)C)[nH]4)ccc32)[nH]1)C(C)C (single isomer, unassigned) [Compound 22] | 0.44 nM | 0.86 nM | – |
| COC(=O)N[C@H](C(=O)N1CCC[C@H]1c1ncc(-c2cc(F)c3c(c2)OC(c2cnc(C4CCCC4)s2)n2c-3cc3cc(-c4cnc([C@@H]5CCCN5C(=O)[C@@H](NC(=O)OC)C(C)C)[nH]4)ccc32)[nH]1)C(C)C (single isomer, unassigned) [Compound 26] | 0.449 nM | 0.126 nM | – |
| CCc1ncc(C2Oc3cc(-c4cnc([C@@H]5CCCN5C(=O)[C@@H](NC(=O)OC)C(C)C)[nH]4)cc(F)c3-c3cc4cc(-c5cnc([C@@H]6CCCN6C(=O)C(NC(=O)OC)C6CCOC(C)(C)C6)[nH]5)ccc4n32)s1 (single isomer, unassigned) [Compound 38] | – | 0.204 nM | IC50 (HCV replicon 1A): 0.0029 nM |
| COC(=O)NC(C(=O)N1[C@@H]2C[C@@H]2C[C@H]1c1ncc(-c2ccc3c(c2)cc2n3C(c3cnc(C(C)C)s3)Oc3cc(-c4cnc([C@@H]5CCCN5C(=O)[C@@H](NC(=O)OC)C(C)C)[nH]4)cc(F)c3-2)[nH]1)C1CCOC(C)(C)C1 (single isomer, unassigned) [Compound 69] | – | 2.87 nM | IC50 (HCV replicon 1A): 0.0424 nM |
| COC(=O)NC(C(=O)N1CCC[C@H]1c1ncc(-c2ccc3c(c2)cc2n3C(c3cnc(-c4ccc(F)cc4)s3)Oc3cc(-c4cnc([C@@H]5CCCN5C(=O)[C@@H](NC(=O)OC)C(C)C)[nH]4)cc(F)c3-2)[nH]1)C1C[C@@H](C)O[C@@H](C)C1 (single isomer, unassigned) [Compound 79] | 0.002 nM | 0.0041 nM | – |
| COC(=O)N[C@H](C(=O)N1CCC[C@H]1c1ncc(-c2cc(F)c3c(c2)OC(c2cnc(C(C)C)s2)n2c-3cc3cc(-c4cnc([C@@H]5CCCN5C(=O)[C@@H](NC(=O)OC)C(C)C)[nH]4)ccc32)[nH]1)C(C)C (single isomer, unassigned) [Compound 85] | 1.08 nM | – | IC50 (HCV replicon 1A; Hepatitis C virus): 0.0014 nM |
| CCCc1ncc(C2Oc3cc(-c4cnc([C@@H]5CCCN5C(=O)[C@@H](NC(=O)OC)C(C)C)[nH]4)cc(C)c3-c3cc4cc(-c5cnc([C@@H]6CCCN6C(=O)C(NC(=O)OC)C6CCOC(C)(C)C6)[nH]5)ccc4n32)s1 (single isomer, unassigned) [Compound 226] | – | – | IC50 (HCV replicon 2B; [1]): 0.005 nM |
| COC(=O)NC(C(=O)N1[C@@H]2C[C@@H]2C[C@H]1c1ncc(-c2ccc3c(c2)cc2n3C(c3cnc(C4CC4)s3)Oc3cc(-c4cnc([C@@H]5CCCN5C(=O)[C@@H](NC(=O)OC)C(C)C)[nH]4)cc(C)c3-2)[nH]1)C1CCOC(C)(C)C1 (single isomer, unassigned) [Compound 227] | – | – | IC50 (HCV replicon 2B; [1]): 0.016 nM |
| COC(=O)NC(C(=O)N1[C@@H]2C[C@@H]2C[C@H]1c1ncc(-c2ccc3c(c2)cc2n3C(c3cnc(C4CC4)s3)Oc3cc(-c4cnc([C@@H]5CCCN5C(=O)[C@@H](NC(=O)OC)C(C)C)[nH]4)cc(F)c3-2)[nH]1)C1CCOC(C)(C)C1 (single isomer, unassigned) [Compound 314] | 0.002 nM | – | IC50 (HCV replicon 1A): 0.0026 nM |
| COC(=O)NC(C(=O)N1[C@@H]2C[C@@H]2C[C@H]1c1ncc(-c2ccc3c(c2)cc2n3C(c3cnc(C(C)(C)C)s3)Oc3cc(-c4cnc([C@@H]5CCCN5C(=O)[C@@H](NC(=O)OC)C(C)C)[nH]4)cc(F)c3-2)[nH]1)C1CCOC(C)(C)C1 (single isomer, unassigned) [Compound 329] | 0.16 nM | – | – |
| COC(=O)NC(C(=O)N1[C@@H]2C[C@@H]2C[C@H]1c1ncc(-c2ccc3c(c2)cc2n3C(c3cnc(C(C)(C)C)s3)Oc3cc(-c4cnc([C@@H]5CCCN5C(=O)[C@@H](NC(=O)OC)C(C)C)[nH]4)cc(F)c3-2)[nH]1)C1CCOC(C)(C)C1 (single isomer, unassigned) [Compound 330] | 0.016 nM | – | – |
| COC(=O)N[C@H](C(=O)N1CCC[C@H]1c1ncc(-c2cc(F)c3c(c2)OC(c2nc4ccccc4s2)n2c-3cc3cc(-c4cnc([C@@H]5CCCN5C(=O)[C@@H](NC(=O)OC)C(C)C)[nH]4)ccc32)[nH]1)C(C)C (single isomer, unassigned) [Compound 400] | > 1.67 nM | – | – |
| COC(=O)N[C@H](C(=O)N1CCC[C@H]1c1ncc(-c2cc(F)c3c(c2)OC(c2cnc(-c4ccncc4)s2)n2c-3cc3cc(-c4cnc([C@@H]5CCCN5C(=O)[C@@H](NC(=O)OC)C(C)C)[nH]4)ccc32)[nH]1)C(C)C (single isomer, unassigned) [Compound 410] | 1.5 nM | – | – |
| COC(=O)N[C@H](C(=O)N1CCC[C@H]1c1ncc(-c2cc(F)c3c(c2)OC(c2cnc(-c4ccc(C)o4)s2)n2c-3cc3cc(-c4cnc([C@@H]5CCCN5C(=O)[C@@H](NC(=O)OC)C(C)C)[nH]4)ccc32)[nH]1)C(C)C (single isomer, unassigned) [Compound 412] | – | – | IC50 (HCV replicon 2B; [1]): 0.12 nM |
| COC(=O)N[C@H](C(=O)N1CCC[C@H]1c1ncc(-c2cc(F)c3c(c2)OC(c2sc(C)nc2C(F)(F)F)n2c-3cc3cc(-c4cnc([C@@H]5CCCN5C(=O)[C@@H](NC(=O)OC)C(C)C)[nH]4)ccc32)[nH]1)C(C)C (single isomer, unassigned) [Compound 427] | – | – | IC50 (HCV replicon 1A; Hepatitis C virus): 0.0024 nM |
| CCC(CC)c1ncc(C2Oc3cc(-c4cnc([C@@H]5CCCN5C(=O)[C@@H](NC(=O)OC)C(C)C)[nH]4)cc(F)c3-c3cc4cc(-c5cnc([C@@H]6CCCN6C(=O)[C@@H](NC(=O)OC)C(C)C)[nH]5)ccc4n32)s1 (single isomer, unassigned) [Compound 429] | – | – | IC50 (HCV replicon 1A): 0.0012 nM |
| COC(=O)N[C@H](C(=O)N1CCC[C@H]1c1ncc(-c2cc(F)c3c(c2)OC(c2cnc(CC(C)C)s2)n2c-3cc3cc(-c4cnc([C@@H]5CCCN5C(=O)[C@@H](NC(=O)OC)C(C)C)[nH]4)ccc32)[nH]1)C(C)C (single isomer, unassigned) [Compound 513] | – | – | IC50 (HCV replicon 2B; replicon 2B, read-out: 2B IC50): 1.21 nM |
